Experimental data taken from US4537614A, “S-aryl and S-aliphatic diamidophosphorothiolates as urease inhibitors and urease inhibited urea based fertilizer compositions” (Allied Corporation, priority 1984, dated 1985).

Key:
[1] = tested on: urease; assay: Urease Inhibiting Efficacy Test in New York soil (Cazenovia silt loam, pH 7.2); type: biochemical; settings: 25° C., 3 days, remaining urea
Experimental: (§1) Representative compounds were tested to evaluate their efficacy in the inhibition of urease as compared to structurally similar compounds. The inhibition tests were run in a New York soil (Cazenovia silt loam, pH 7.2) and a Wisconsin soil (Plano silt loam, pH 5.4). […] The bottle was capped with perforated aluminum foil and incubated at 25° C. for 3 days prior to extraction with 100 mL of a 2M potassium chloride solution containing 0.5 mg of phenylmercuric acetate. The extracts were then analyzed for remaining urea using an autoanalyzer. Percent inhibition was calculated as
(§2) % Inhibition=[1-(A-B/A-C)]×100%
(§3) where A is urea recovered from unincubated sample (urea added to soil and immediately extracted); B is urea recovered from inhibited sample; and C is urea recovered from the control (uninhibited sample).

[2] = tested on: urease; assay: Urease Inhibiting Efficacy Test in Wisconsin soil (Plano silt loam, pH 5.4); type: biochemical; settings: 25° C., 3 days, remaining urea
Experimental: as §1, §2, §3

[3] = tested on: urease; assay: Efficacy as urease inhibitor, general statement (long term residual activity); settings: primarily because of relatively long term residual activity
[4] = 200 micrograms test compound (footnote *) + 42.8 mg urea per 20 g air dry soil
[5] = 800 micrograms test compound + 42.8 mg urea per 20 g air dry soil

Compound | % Inhibition Cazenovia Soil [1, 4] [%] | % Inhibition Wisconsin Soil [2, 4] [%] | efficacy among the especially efficacious compounds [3] | % Inhibition Cazenovia Soil [1, 5] [%] | % Inhibition Wisconsin Soil [2, 5] [%]
CC(C)CSP(N)(N)=O [Experiment 4, S-(iso-Butyl) Diamidophosphorothiolate] | 80 | 83 | most efficacious |  | 
CCCOP(N)(N)=O [Comp. Ex. 2, reference compound] |  |  |  | 15 | 
COP(N)(N)=O [Comp. Ex. 1, reference compound] |  |  |  | 34 | 
NP(N)(=O)SC1CCCCC1 [Experiment 6, S-(Cyclohexyl) Diamidophosphorothiolate] | 66 | 58 |  |  | 
CSP(N)(N)=O [S-Methyl Diamidophosphorothiolate] |  |  |  | 93 | 93
CCCCSP(N)(N)=O [Experiment 2, S-(n-Butyl) Diamidophosphorothiolate] | 74 | 82 | most efficacious |  | 
CCCCCCSP(N)(N)=O [Experiment 5, S-(n-Hexyl) Diamidophosphorothiolate] | 52 | 66 | most efficacious |  | 
CCC(C)SP(N)(N)=O (stereo not drawn) [Experiment 3, S-(2-Butyl) Diamidophosphorothiolate] | 74 | 84 |  |  | 
